Entries after “also recorded” stand apart in the source; their conditions may differ. Like-named read-outs stand apart in the source and are kept apart here.
Legend:
Jurkat cells [1] = test: Mitotic arrest in Jurkat cells (mitotic figures, Syto 16); type: cell-based; conditions: Homo sapiens, 6 h
Method: Jurkat cells were incubated with a range of concentrations of 5-chloro-3-methyl-indole-2-carboxylic acid (4-nitrobenzylidene)-hydrazide (0.02 μM to 5 μM) for 6 h under normal growth conditions; control cultures were treated with DMSO vehicle. The cells were then treated for 20 min. with 800 nM Syto 16 (Molecular Probes, Eugene, Oreg.). Cytospin preparations were then prepared and the samples were viewed by fluorescent microscopy using a fluorescein filter set. For each concentration of test compound, the number of mitotic figures were counted and expressed as a percentage of the total number of cells. Three fields from each condition were evaluated and the mean and SEM were calculated and plotted as a function of drug concentration (FIG. 2).

T-47D [2] = test: Inhibition of cell proliferation (GI50, CellTiter 96 AQueous One) in T-47D cells; type: cell-based; conditions: Homo sapiens, T47D, 48 h, read-out: GI50 (dose for 50% inhibition of cell proliferation)
Method: (§1) T-47D and ZR-75-1 cells were grown and harvested as in Example 1. An aliquot of 90 μl of cells (2.2×10^4 cells/ml) was added to a well of a 96-well microtiter plate containing 10 μl of a 10% DMSO in RPMI-1640 media solution containing 1 nM to 100 μM of 5-chloro-3-methyl-indole-2-carboxylic acid (4-nitrobenzylidene)-hydrazide (Compound A) or 5-chloro-3-phenyl-indole-2-carboxylic acid (4-nitrobenzylidene)-hydrazide (Compound B) (0.1 nM to 10 μM final). An aliquot of 90 μl of cells was added to a well of a 96-well microtiter plate containing 10 μl of a 10% DMSO in RPMI-1640 media solution without compound as the control sample for maximal cell proliferation (AMax). The samples were mixed by agitation and then incubated at 37° C. for 48 h in a 5% CO2-95% humidity incubator. […] Using an absorbance plate reader (Model 1420 Wallac Instruments), an initial reading (T=0) was made approximately 1-2 min after addition of the solution, employing absorbance at 490 nm. This determines the possible background absorbance of the test compounds. No absorbance for 5-chloro-3-methyl-indole-2-carboxylic acid (4-nitrobenzylidene)-hydrazide or 5-chloro-3-phenyl-indole-2-carboxylic acid (4-nitrobenzylidene)-hydrazide was found at 490 nm. After the 2-4 h incubation, the samples were read for absorbance as above (ATest). […]

ZR-75-1 [3] = test: Caspase cascade activation (N-(Ac-DEVD)-N'-ethoxycarbonyl-R110 fluorogenic substrate) in ZR-75-1 cells; type: cell-based, Human; conditions: ZR-75-1, 24 h incubation with compound; for EC50: Homo sapiens; for Caspase activity Ratio (net RFU of test compound to control): 3 h substrate reading
Method: (§2) Human breast cancer cell lines T-47D and ZR-75-1 were grown according to media component mixtures designated by American Type Culture Collection +10% FCS (Invitrogen Corporation, Life Technologies division), in a 5% CO2-95% humidity incubator at 37° C. T-47D and ZR-75-1 cells were maintained at a cell density between 30 and 80% confluency at a cell density of 0.1 to 0.6×10^6 cells/ml. Cells were harvested at 600×g and resuspended at 0.65×10^6 cells/ml into appropriate media +10% FCS. An aliquot of 45 μl of cells was added to a well of a 96-well microtiter plate containing 5 μl of a 10% DMSO in RPMI-1640 media solution containing 0.16 to 100 μM of 5-chloro-3-methyl-indole-2-carboxylic acid (4-nitrobenzylidene)-hydrazide (Compound A) or other test compound (0.016 to 10 μM final). An aliquot of 45 μl of cells was added to a well of a 96-well microtiter plate containing 5 μl of a 10% DMSO in RPMI-1640 media solution without test compound as the control sample. The samples were mixed by agitation and then incubated at 37° C. for 24 h in a 5% CO2-95% humidity incubator. After incubation, the samples were removed from the incubator and 50 μl of a solution containing 20 μM of N-(Ac-DEVD)-N′-ethoxycarbonyl-R110 fluorogenic substrate (Cytovia, Inc.; WO99/18856), 20% sucrose (Sigma), 20 mM DTT (Sigma), 200 mM NaCl (Sigma), 40 mM Na PIPES buffer pH 7.2 (Sigma), and 500 μg/ml lysolecithin (Calbiochem) was added. The samples were mixed by agitation and incubated at room temperature. Using a fluorescent plate reader (Model 1420 Wallac Instruments), an initial reading (T=0) was made approximately 1-2 min after addition of the substrate solution, employing excitation at 485 nm and emission at 530 nm, to determine the background fluorescence of the control sample. After the 3 h incubation, the samples were read for fluorescence as above (T=3 h).
(§3) The Relative Fluorescence Unit values (RFU) were used to calculate the sample readings as follows: RFU(T=3h)−Control RFU(T=0)=Net RFU(T=3h)
(§4) The activity of caspase cascade activation was determined by the ratio of the net RFU value for 5-chloro-3-methyl-indole-2-carboxylic acid (4-nitrobenzylidene)-hydrazide (Compound A) or other test compound to that of control samples. The EC50 (nM) was determined by a sigmoidal dose-response calculation (Prism 2.0, GraphPad Software Inc.).

T-47D [4] = test: Caspase cascade activation (N-(Ac-DEVD)-N'-ethoxycarbonyl-R110 fluorogenic substrate) in T-47D cells; type: cell-based, Human; conditions: 24 h incubation with compound; for Caspase activity Ratio (net RFU of test compound to control): 3 h substrate reading; for EC50: Homo sapiens, T47D
Method: as §2, §3, §4

ZR-75-1 [5] = test: Inhibition of cell proliferation (GI50, CellTiter 96 AQueous One) in ZR-75-1 cells; type: cell-based; conditions: Homo sapiens, ZR-75-1, 48 h; read-out: GI50 (dose for 50% inhibition of cell proliferation)
Method: as §1

Jurkat cells [6] = test: Nuclear fragmentation in Jurkat cells (Syto16 staining); type: cell-based; conditions: 5 μM, 24 h
Method: The ability of 5-chloro-3-methyl-indole-2-carboxylic acid (4-nitrobenzylidene)-hydrazide to induce nuclear fragmentation, an indicator of apoptosis, was tested by treatment of Jurkat cells with the test compound followed by staining of the nucleus with Syto16, a fluorescent DNA dye (Molecular Probes, Eugene, Oreg.). The nuclei of Jurkat cells treated with vehicle control (DMSO) are seen to be round with dispersed chromatin that is moderately stained with Syto16 (FIG. 1A).

T47D cells = test: Cell cycle arrest and apoptosis in T47D cells (propidium iodide flow cytometry); type: cell-based, Human; conditions: 10 μM, 48 h
Method: T47D, a breast cancer cell line, was maintained and harvested as described in Example 1. 1×10^6 Cells were treated with 10 μM of 5-chloro-3-methyl-indole-2-carboxylic acid (4-nitrobenzylidene)-hydrazide for 48 h at 37° C. As a control, cells were also incubated with equivalent amount of solvent (DMSO). Cells were harvested at 1,200 rpm and washed twice with 5 mM EDTA/PBS. Cells were then resuspended in 300 μl EDTA/PBS and 700 μl of 100% ethanol, vortexed and incubated at room temperature for 1 h. Samples were spun down at 1,200 rpm for 5 min and the supernatant was removed. A solution containing 100 μg/ml of propidium iodide and 1 mg/ml of RNAse A (fresh) was added to the samples and incubated for 1 h at room temperature. Samples were then transferred to 12×75 mm polystyrene tubes and analyzed on a flow cytometer. All flow cytometry analyses were performed on FACScalibur (Becton Dickinson) using Cell Quest analysis software. The x-axis plotted the amount of fluorescence and the y-axis is plotted the number of cells with the indicated fluorescence. […] An increase in the sub-diploid DNA content of cells (marker M1 region, FIG. 3) is also seen to increase from 2% to 25% with compound treatment. The sub-diploid amount of DNA (M1) is indicative of apoptotic cells which have undergone DNA degradation or fragmentation.

HeLa cells = test: Clonogenic survival of HeLa cells; type: cell-based; conditions: for IC50: Homo sapiens
Method: HeLa cells were grown according to media component mixtures designated by American Type Culture Collection +10% FCS (Invitrogen Corporation, Life Technologies division), in a 5% CO2-95% humidity incubator at 37° C. In a well of a 96 well plate, 30,000 cells were seeded and treated with testing compound at the indicated concentrations for 48 hr in a 5% CO2-95% humidity incubator at 37° C. Control wells were treated with the same amount of solvent (DMSO) as the compound samples. After the indicated treatment time, the supernatant was removed to a sterile culture tube and the wells washed with phosphate buffered saline, and the adherent cells trypsinized for 5 min. The trypsinzed cells were added to the culture supernatant, cells were collected (1,200 rpm, 10 min), washed with phosphate buffered saline, and resupended in fresh media. The cells were counted for trypan blue negative cells, and the cells diluted with fresh media to 1,000 cells/ml. To a well of a 24-well plate, 0.1 ml of the cell suspension was added along with 1 ml of fresh media (cell suspensions were passed through a 22G needle several times just before plating to form single cell suspensions). Plates are incubated in a 5% CO2-95% humidity incubator at 37° C. for 5-7 days. Colonies are counted when the sizes reached greater than 50 cells per colony. Cells are washed with phosphate buffered saline, fixed with 100% methanol for 15 min, and then stained with 0.5% gentian violet for 15 min. Colonies are rinsed with water and the colonies counted and the fraction surviving expressed as the percentage of the number of control colonies.

[7] = 48 hr treatment, read-out: IC50 of colony forming ability
[8] = 48 h treatment, FIG. 4 legend, read-out: IC50 of colony formation

SMILES | EC50 (Jurkat cells [1]) [nM] | GI50 (T-47D [2]) [nM] | EC50 (ZR-75-1 [3]) [nM] | Caspase activity Ratio (net RFU of test compound to control) (ZR-75-1 [3]) | Caspase activity Ratio (net RFU of test compound to control) (T-47D [4]) | EC50 (T-47D [4]) [nM] | GI50 (ZR-75-1 [5]) [nM] | Nuclear morphology (nuclear fragmentation) (Jurkat cells [6]) | G2/M DNA content (M4) of cells (T47D cells) | Sub-diploid DNA content of cells (M1) (T47D cells; control 2%) [%] | IC50 (HeLa cells; [7]) [nM] | IC50 (HeLa cells; [8]) [nM] | Increase in potency in clonogenic survival assay versus Compound A (HeLa cells; 48 hr treatment) [fold]
Cc1c(C(=O)NN=Cc2ccc([N+](=O)[O-])cc2)[nH]c2ccc(Cl)cc12 [Compound A, 5-chloro-3-methyl-indole-2-carboxylic acid (4-nitrobenzylidene)-hydrazide] | ~800 | 2000 | 532 | 7.0 | 6.9 | 2000 | 12000 | shrunken and fragmented nuclei | increase in G2/M DNA content; also recorded: an increase in the G2/M (M4) | 25 | ~3000 | ~3000 | 
O=C(NN=Cc1ccc([N+](=O)[O-])cc1)c1[nH]c2ccc(Cl)cc2c1-c1ccccc1 [Compound B, 5-chloro-3-phenyl-indole-2-carboxylic acid (4-nitrobenzylidene)-hydrazide] |  | 100 | 276 | 2.9 | 3 | 501 |  |  |  |  | ~300 | ~300 | 10
Cc1ccc(C=NNC(=O)c2[nH]c3ccc(Cl)cc3c2C)cc1 [Example 1, 5-Chloro-3-methyl-indole-2-carboxylic Acid (4-Methylbenzylidene)-hydrazide] |  |  | 187 | 2.6 | 3.7 | 253 |  |  |  |  |  |  | 
Cc1c(C(=O)NN=Cc2ccccc2)[nH]c2ccc(Cl)cc12 [Example 2, 5-Chloro-3-methyl-indole-2-carboxylic Acid (Benzylidene)-hydrazide] |  |  | 1490 | 4.1 | 5.1 | 4280 |  |  |  |  |  |  | 
Cc1c(C(=O)NN=Cc2ccc(N(C)C)cc2)[nH]c2ccc(Cl)cc12 [Example 3, 5-Chloro-3-methyl-indole-2-carboxylic Acid (4-Dimethylaminobenzylidene)-hydrazide] |  |  | 449 | 7.2 | 6.0 | 939 |  |  |  |  |  |  | 
Cc1ccc(C=NNC(=O)c2[nH]c3ccc(C)cc3c2-c2ccccc2)cc1 [Example 13, 5-Methyl-3-phenyl-indole-2-carboxylic Acid (4-Methylbenzylidene)-hydrazide] |  |  | 100 | 7.6 | 3.1 | 300 |  |  |  |  |  |  | 
Cc1ccc2[nH]c(C(=O)NN=Cc3ccc(N(C)C)cc3)c(-c3ccccc3)c2c1 [Example 14, 5-Methyl-3-phenyl-indole-2-carboxylic Acid (4-Dimethylaminobenzylidene)-hydrazide] |  |  | 830 | 4.1 | 3.5 | 2400 |  |  |  |  |  |  | 
Cc1c(C(=O)NN=Cc2ccc(Cl)cc2)[nH]c2ccc(Cl)cc12 [Example 21, 5-Chloro-3-methyl-indole-2-carboxylic Acid (4-Chlorobenzylidene)-hydrazide] |  |  | 2770 | 3.5 | 4.2 | 3650 |  |  |  |  |  |  | 

From patent US6747052B2, “Substituted indole-2-carboxylic acid benzylidene-hydrazides and analogs as activators of caspases and inducers of apoptosis and the use thereof” (Cytovia, Inc., priority 2000, dated 2004)
